Assay results reported in patent US9949980B2, “Drugs to prevent HPV infection” (Wisconsin Alumni Research Foundation, priority 2008, dated 2018).
Where two headings read alike, the source gives them in different places.

What was measured:
[1] = in vitro; settings: human, Viability (CelTiter Glow)
Method: (§1) FIG. 1. High throughout screen (HTS) for identifying inhibitors of HPV infection. Shown is a schematic showing basic steps in the HTS. […] Briefly, HPV16 pseudoviruses containing the SEAP reporter genes are analyzed for their ability to infect as judged by the levels of secreted alkaline phosphatase in the tissue culture supernatant (light grey arrows). Cell viability was assessed in parallel on the same wells (dark grey arrows). In the specific HTS carried out in this study, the compounds were added at 3 uM/1% DMSO final concentration (black arrow) 4 hours prior to infection.
(§2) After incubation at 37° C. for 24 hrs, 35 μL of media was removed. […] Cells were incubated at 37° C. for 48 hrs. 2.5 μL of media was collected for SEAP assay using a PHOSPHA-LIGHT chemiluminescent alkaline phosphatase assay (Applied Biosystems). Cell viability was determined using the CellTiter Glo Luminescent Cell Viability Assay™ (Promega).

[2] = test system: HPV16 pseudoviruses; assay: microbe, parasite or virus in culture; format: cell-based; settings: Human papillomavirus 16, HEK-293T, 48 h
Method: as §1, §2

[3] = read-out: Infectivity (SEAP Activity), 3 μM HTS standard concentration, 293T cells, 48 hrs
[4] = read-out: Infectivity vs. viability, 3 μM HTS standard concentration, ratio infectivity/viability

| SMILES | viability at 52 h, 3 μM [1] | activity at 3 µM [2, 3] | activity at 3 µM [2, 4] |
| --- | --- | --- | --- |
| Cc1ccc(OCc2nnc(NC(=O)Nc3ccc(Cl)c(Cl)c3)s2)cc1 [Compound 6070527, N-(3,4-dichlorophenyl)-N′-{5-[(4-methylphenoxy)methyl]-1,3,4-thiadiazol-2-yl}urea] | 105% | 41.8% | 39.8% |
| N#CCCOCc1cccc2ccccc12 [Compound 5102121, 3-(1-naphthylmethoxy)propanenitrile] | 110% | 55.8% | 50.6% |
| Cc1cccc(C=C2C(=O)NN(c3ccccc3)C2=O)c1 [Compound 6233808, 4-(3-methylbenzylidene)-1-phenyl-3,5-pyrazolidinedione] | 117% | 58.5% | 50.2% |
| Cc1cc(Cl)ccc1OCC(=O)Nc1ccc(Br)c(NC(=O)c2ccccc2)c1 [Compound 6016344, N-(2-bromo-5-{[(4-chloro-2-methylphenoxy)acetyl]amino}phenyl)benzamide] | 94.6% | 51.4% | 54.4% |
| O=C(NC(NC(=S)Nc1ccccc1[N+](=O)[O-])C(Cl)(Cl)Cl)c1ccco1 (centres unmarked) [Compound 5143070, N-[2,2,2-trichloro-1-({[(2-nitrophenyl)amino]carbonothioyl}amino)ethyl]-2-furamide] | 108% | 43.7% | 40.5% |
| Cc1ccc(S(=O)(=O)N(C)c2ccc(Br)cc2C(=O)c2ccccc2)cc1 [Compound 5867793, N-(2-benzoyl-4-bromophenyl)-N,4-dimethylbenzenesulfonamide] | 95% | 36.1% | 38% |
| CCc1ccccc1N(CC(=O)OC)S(C)(=O)=O [Compound 6226431, methyl N-(2-ethylphenyl)-N-(methylsulfonyl)glycinate] | 114% | 62.8% | 55.2% |
| Cc1c(NS(=O)(=O)c2cc(Cl)ccc2Cl)cccc1[N+](=O)[O-] [Compound 6107659, 2,5-dichloro-N-(2-methyl-3-nitrophenyl)benzenesulfonamide] | 67.8% | 22.3% | 32.9% |
| COc1ccc(S(=O)(=O)Nc2cc(Cl)ccc2C)cc1 [Compound 6118535, N-(5-chloro-2-methylphenyl)-4-methoxybenzenesulfonamide] | 73.9% | 39% | 52.8% |
| COC(=O)C1=C(C)NC2=C(C(=O)c3ccccc32)C1c1ccc(-c2ccccc2C(=O)O)o1 (centres unmarked) [Compound 6177037, 2-{5-[3-(methoxycarbonyl)-2-methyl-5-oxo-4,5-dihydro-1H-indeno[1,2-b]pyridin-4-yl]-2-furyl}benzoic acid] | 110% | 64% | 58.4% |
| ON=Cc1ccc(Cl)s1 [SEW 06085, 5-chlorothiophene-2-carbaldehyde oxime] | 103% | 54.9% | 53.2% |
| CN(C)c1cccc(C(=O)NCc2ccc(S(N)(=O)=O)cc2)c1 [Compound 6106063, N-[4-(aminosulfonyl)benzyl]-3-(dimethylamino)benzamide] | 105% | 45.6% | 43.4% |
| O=C1NN(c2ccc(Cl)c(Cl)c2)C(=O)C1=Cc1ccc(Cl)c([N+](=O)[O-])c1 [Compound 5585119, 4-(4-chloro-3-nitrobenzylidene)-1-(3,4-dichlorophenyl)-3,5-pyrazolidinedione] | 108% | 54.4% | 50.5% |
| O=C(NC(=S)Nc1ccc([N+](=O)[O-])cc1O)C12CC3CC(CC(C3)C1)C2 [Compound 5197089, N-{[(2-hydroxy-4-nitrophenyl)amino]carbonothioyl}-1-adamantanecarboxamide] | 67% | 2.01% | 2.99% |
| Cc1nc2ccccc2c(=O)n1N=Cc1c(O)ccc2ccccc12 [Compound 6001901, 3-{[(2-hydroxy-1-naphthyl)methylene]amino}-2-methyl-4(3H)-quinazolinone] | 110% | 65.8% | 60% |
| COc1ccc(C(NC(=O)Cc2ccccc2)c2ccc3cccnc3c2O)cc1 (centres unmarked) [Compound 5929288, N-[(8-hydroxy-7-quinolinyl)(4-methoxyphenyl)methyl]-2-phenylacetamide] | 59.8% | 1.44% | 2.41% |

| SMILES | viability at 52 h, 3 μM [1] | activity at 3 µM [2, 3] | activity at 3 µM [2, 4] |
| --- | --- | --- | --- |
| Cc1ccc(NC(=O)Cc2ccc(F)cc2)cc1 [Compound 5585700, 2-(4-fluorophenyl)-N-(4-methylphenyl)acetamide] | 105% | 55.4% | 52.5% |
| Cc1ccc(N2C(=O)C(Cl)=C(Nc3ccc(C)c(C)c3)C2=O)c(C)c1 [Compound 6137315, 3-chloro-1-(2,4-dimethylphenyl)-4-[(3,4-dimethylphenyl)amino]-1H-pyrrole-2,5-dione] | 93.7% | 55.9% | 59.7% |
| O=S(=O)(Nc1nc2ccccc2nc1Nc1ccccc1)c1ccccc1 [Compound 5123541, N-(3-anilino-2-quinoxalinyl)benzenesulfonamide] | 106% | 47% | 44.5% |
| COc1cc(C=C2C(=O)NN(c3ccc(Cl)c(Cl)c3)C2=O)c([N+](=O)[O-])cc1OC [Compound 5581710, 1-(3,4-dichlorophenyl)-4-(4,5-dimethoxy-2-nitrobenzylidene)-3,5-pyrazolidinedione] | 75.1% | 23.9% | 31.9% |
| CCCC(=O)NC(c1cccc([N+](=O)[O-])c1)c1ccc2cccnc2c1O (centres unmarked) [Compound 5926288, N-[(8-hydroxy-7-quinolinyl)(3-nitrophenyl)methyl]butanamide] | 63.3% | 1.52% | 2.4% |
| O=C(CSc1nc2cc([N+](=O)[O-])ccc2[nH]1)Nc1ccc2c(c1)OCO2 [Compound 5349092, N-1,3-benzodioxol-5-yl-2-[(5-nitro-1H-benzimidazol-2-yl)thio]acetamide] | 103% | 52.5% | 51.1% |
| COC(=O)C1=C(C)NC2=C(C(=O)c3ccccc32)C1c1ccc(OCc2ccc([N+](=O)[O-])cc2)c(Cl)c1 (centres unmarked) [Compound 6202416, methyl 4-{3-chloro-4-[(4-nitrobenzyl)oxy]phenyl}-2-methyl-5-oxo-4,5-dihydro-1H-indeno[1,2-b]pyridine-3-carboxylat] | 123% | 51.4% | 42% |
| COc1ccccc1CC(N)=NOC(=O)COc1ccc(C)cc1 [Compound 6084167, 2-(2-methoxyphenyl)-N′-{[(4-methylphenoxy)acetyl]oxy}ethanimidamide] | 114% | 53.8% | 47.2% |
| N#CCCN1CCCN(CCC#N)CCN(CCC#N)CCCN(CCC#N)CC1 [JFD 02931, 3-[4,8,11-tri(2-cyanoethyl)-1,4,8,11-tetraazacyclotetradecanyl]propanenitrile] | 99.9% | 46.7% | 46.7% |
| CCCCNC(=O)c1cc2nc(-c3ccc(OCC)cc3)cc(C)n2n1 [Compound 6070486, N-butyl-5-(4-ethoxyphenyl)-7-methylpyrazolo[1,5-a]pyrimidine-2-carboxamide] | 113% | 54.6% | 48.3% |
| O=C(Nc1sc2c(c1C(=O)NCCc1ccccc1)CCCCC2)c1ccccc1F [Compound 5794700, 2-[(2-fluorobenzoyl)amino]-N-(2-phenylethyl)-5,6,7,8-tetrahydro-4H-cyclohepta[b]thiophene-3-carboxamide] | 109% | 49.2% | 45.1% |
| Cc1ccc2cc(C3CC(c4ccc(Br)cc4)=NN3C(=O)CCC(=O)O)c(=O)[nH]c2c1 (centres unmarked) [Compound 5976736, 4-[3-(4-bromophenyl)-5-(7-methyl-2-oxo-1,2-dihydro-3-quinolinyl)-4,5-dihydro-1H-pyrazol-1-yl]-4-oxobutanoic acid] | 105% | 42.2% | 40.2% |
| O=C(Nc1ccccc1C(=O)N[C@@H](Cc1ccccc1)C(=O)O)c1ccccc1 [Compound 6058136, N-[2-(benzoylamino)benzoyl]phenylalanine] | 109% | 64.7% | 59.1% |
| COc1cc(NC(=O)COc2ccccc2C)ccc1NC(=O)c1ccco1 [Compound 6113090, N-(2-methoxy-4-{[(2-methylphenoxy)acetyl]amino}phenyl)-2-furamide] | 106% | 55% | 51.9% |
| O=C1C(=Cc2cccc(O)c2)SC(=S)N1c1ccc(Cl)cc1 [Compound 5851060, 3-(4-chlorophenyl)-5-(3-hydroxybenzylidene)-2-thioxo-1,3-thiazolidin-4-one] | 102% | 56.3% | 55.3% |
| O=C(Nc1ccc(Cl)c(Cl)c1)Nc1ccccc1C(=O)O [Compound 5963375, 2-({[(3,4-dichlorophenyl)amino]carbonyl}amino)benzoic acid] | – | 14.2% | 20.2% |
